In patent US9133147B2, “Thrombin inhibitors” (Merck Sharp & Dohme Corp., priority 2012, dated 2015):
Counter-ions that a name gives are not always drawn.

Target: human α-thrombin (Homo sapiens, UniProt P00734)
Assay: In vitro assay for determining proteinase inhibition (thrombin Ki)
Type: biochemical
Details: 25° C., 0.05 M TRIS buffer pH 7.4, 0.15 M NaCl, 0.1% PEG; sar-PR-pna or Z-GPR-afc substrate; competitive inhibition assumed
Source text: Unless otherwise stated, all NMR determinations were made using 400 MHz field strength. Ki data was obtained according to the procedure described in Lewis, et al. Thromb. Res. 1993, 70, 173 (assays of human-thrombin and human trypsin), and Lewis, et al. Thromb. Haemostasis 1995, 74, 1107-1112.
Relevant in vitro assays are referenced in Morrissette, et al., Bioorg. Med. Chem. Lett. 2004, 14, 4161-4164 and described in Lewis, et al. Thromb. Res. 1993, 70, 173 (assays of human α-thrombin and human trypsin), and Lewis, et al. Thromb. Haemostasis 1995, 74, 1107-1112. The assays were carried out at 25° C. in 0.05 M TRIS buffer pH 7.4, 0.15 M NaCl, 0.1% PEG. Trypsin assays also contained 1 mM CaCl2. In assays wherein rates of hydrolysis of a p-nitroanilide (pna) substrate were determined, a Thermomax 96-well plate reader was used was used to measure (at 405 nm) the time dependent appearance of p-nitroaniline. sar-PR-pna was used to assay human α-thrombin (Km=125 μM) and bovine trypsin (Km=125 μM). p-Nitroanilide substrate concentration was determined from measurements of absorbance at 342 nm using an extinction coefficient of 8270 cm^−1M^−1.
In certain studies with potent inhibitors (Ki<10 nM) where the degree of inhibition of thrombin was high, a more sensitive activity assay was employed. In this assay the rate of thrombin catalyzed hydrolysis of the fluorogenic substrate benzyloxycarbonyl-Gly-Pro-Arg-7-amino-4-trifluoromethylcoumarin (Z-GPR-afc, Lewis S. D. et al. (1998) J. Biol. Chem. 273, pp. 4843-4854) (Km=27 μM) was determined from the increase in fluorescence at 500 nm (excitation at 400 nm) associated with production of 7-amino-4-trifluoromethyl coumarin. Concentrations of stock solutions of Z-GPR-afc were determined from measurements of absorbance at 380 nm of the 7-amino-4-trifluoromethyl coumarin produced upon complete hydrolysis of an aliquot of the stock solution by thrombin.
Activity assays were performed by diluting a stock solution of substrate at least tenfold to a final concentration ≦0.1 Km into a solution containing enzyme or enzyme equilibrated with inhibitor. Times required to achieve equilibration between enzyme and inhibitor were determined in control experiments. Initial velocities of product formation in the absence (VO) or presence of inhibitor (Vi) were measured. Assuming competitive inhibition, and that unity is negligible compared Km/[S], [I]/e, and [I]/e (where [S], [I], and e respectively represent the total concentrations, of substrate, inhibitor and enzyme), the equilibrium constant (Ki) for dissociation of the inhibitor from the enzyme can be obtained from the dependence of VO/Vi on [I] shown in the following equation. VO/Vi=1+[I]/Ki

Row | Compound | Ki [nM]
1 | CC(C)(C)[C@@H](O)C(=O)N1CCNC[C@H]1C(=O)NCc1cc(Cl)ccc1CN [Example 2, (2S)—N-[2-(aminomethyl)-5-chlorobenzyl]-1-[(2R)-2-hydroxy-3,3-dimethylbutanoyl]piperazine-2-carboxamide bis trifluoroacetate salt] | 63
2 | CC(C)(C)[C@@H](O)C(=O)N1CCCC[C@H]1C(=O)NCc1cc(Cl)ccc1CN [Example 1, (2S)—N-[2-(aminomethyl)-5-chlorobenzyl]-1-[(2R)-2-hydroxy-3,3-dimethylbutanoyl]piperidine-2-carboxamide trifluoroacetate salt] | 7.3
3 | CN1CCN(C(=O)[C@H](O)C(C)(C)C)[C@H](C(=O)NCc2cc(Cl)ccc2CN)C1 [Example 3, (2S)—N-[2-(aminomethyl)-5-chlorobenzyl]-1-[(2R)-2-hydroxy-3,3-dimethylbutanoyl]-4-methylpiperazine-2-carboxamide trifluoroacetate salt] | 34
4 | CC(C)(C)[C@@H](O)C(=O)N1CCOC[C@H]1C(=O)NCc1cc(Cl)ccc1CN [Example 4, (3S)—N-[2-(aminomethyl)-5-chlorobenzyl]-4-[(2R)-2-hydroxy-3,3-dimethylbutanoyl]morpholine-3-carboxamide trifluoroacetate salt] | 32
5 | CC(C)(C)[C@@H](O)C(=O)N1CC[S+]([O-])C[C@H]1C(=O)NCc1cc(Cl)ccc1CN (stereo partly drawn) [Example 6, (3R)—N-[2-(aminomethyl)-5-chlorobenzyl]-4-[(2R)-2-hydroxy-3,3-dimethylbutanoyl]thiomorpholine-3-carboxamide 1-oxide trifluoroacetate (salt)] | 78
6 | CC(C)(C)[C@@H](O)C(=O)N1CCSC[C@H]1C(=O)NCc1cc(Cl)ccc1CN [Example 5, (3R)—N-[2-(aminomethyl)-5-chlorobenzyl]-4-[(2R)-2-hydroxy-3,3-dimethylbutanoyl]thiomorpholine-3-carboxamide trifluoroacetate salt] | 1.1
7 | CC(C)(C)[C@@H](O)C(=O)N1CCS(=O)(=O)C[C@H]1C(=O)NCc1cc(Cl)ccc1CN [Example 7, (3R)—N-[2-(aminomethyl)-5-chlorobenzyl]-4-[(2R)-2-hydroxy-3,3-dimethylbutanoyl]thiomorpholine-3-carboxamide 1,1-dioxide trifluoroacetate salt] | 52
